Measured values as given in article PMC6153520, “Proteasome inhibition and mechanism of resistance to a synthetic, library-based hexapeptide” (Investigational New Drugs, 2018).
Like-named read-outs stand apart in the source and are kept apart here. Where a SMILES comes first, the peptide text is derived from it. The star is where a group is joined. Cbz = O=C(OCc1ccccc1)*; NHBn = c1ccc(CN*)cc1; OBn = c1ccc(CO*)cc1; Bn = c1ccc(C*)cc1; OtBu = CC(C)(C)O*

Tests used:
[1] = target: T1, chymotrypsin-like proteasome activity (Homo sapiens, UniProt P28074); assay: Proteasome-Glo cell-based assay in intact THP1 cells; conditions: 1 h exposure, mean of 3 experiments ± S.D., read-out: IC50, inhibition of chymotrypsin-like proteasome activity
T1 construct: chymotrypsin-like proteasome activity in intact THP1 cells after 1 h exposure; endogenous in cells; host or cells: THP1 (wild type)

THP1/WT [2] = assay type: cell-based, human; conditions: 72 h
Protocol: Human monocytic/macrophage THP1 cells (ATTC, Manassas, USA) were cultured in RPMI-1640 medium supplemented with 5% fetal calf serum, 20 mM HEPES, 2 mM glutamine and 100 μg/ml penicillin/ streptomycin at 5% CO2 and 37 °C. Cell cultures were seeded at a density of 3 × 10^5 cells/ml and refreshed twice weekly. […] Some specific experiments also included THP1/BTZ100 cells that were cultured in the absence of BTZ for 6 months (further designated as THP1/BTZ (−100) cells). Mouse thymoma EL4 and human multiple myeloma H929 cells were cultured in RPMI-1640 medium supplemented with 8% fetal calf serum and 100 μg/ml penicillin/streptomycin at 5% CO2 and 37 °C.
(§1) Evaluation of drug sensitivity was carried out as described before. Cells were seeded at an initial density of 1.25 × 10^5 cells/ml in individual wells of a 24-well plate containing up to 50 μl of drug solutions. Inhibition of cell growth was determined after 72 h of incubation at 37 °C by determining the number of viable cells […] using trypan blue exclusion. The drug concentration required to inhibit cell growth by 50% compared to untreated controls was defined as the IC50.

A549/ATCC = assay: NCI60 tumor cell line screen; assay type: cell-based; conditions: Homo sapiens, NSC Lung, 48 h drug exposure, read-out: LOG10 GI50 (converted)
THP1/WT cells [3] = assay: Western blot, accumulation of ubiquitinated proteins; assay type: cell-based, human; conditions: 24 h exposure
Protocol: Western blot analysis to determine protein levels of (i) β1, β2 and β5 proteasome subunits and (ii) the accumulation of ubiquitinated proteins after treatment with 4A6 was performed essentially as described previously. Cells were harvested in the mid-log phase of growth and washed 3 times with ice-cold buffered saline pH 7.4. Total cell lysates of 5 × 10^6 cells were prepared by resuspension in 500 μl lysis buffer containing: 50 mM Tris-HCl (pH 7.6), 5 mM dithiotreitol, 20 μl PIC (Protease Inhibitor Cocktail; 1 tablet/ml H2O), 20% glycerol and 0.5% NP-40. The suspension was sonicated (MSE sonicator, amplitude 7, for 3 × 5 s with 20 s time intervals at 4 °C) and centrifuged in an Eppendorf micro centrifuge (5 min, 12,000 rpm, 4 °C). Protein content of the supernatant was determined by the Bio-Rad protein assay. 20–30 μg of total cell lysates were fractionated on a 10% polyacrylamide gel containing SDS and transferred onto a PVDF membrane. The membranes were pre-incubated overnight at 4 °C in blocking buffer (5% Bio-Rad Blocker in TBS-T; 10 mM Tris-HCl, pH 8.0, 0.15 M NaCl, 0.1% Tween-20) to prevent non-specific antibody binding. After blocking, the membranes were incubated for 1 h at room temperature with primary antibodies for proteasome subunit β1 (1:1000, PW8140), β2 (1:1000, PW8145) and β5 (1:1000, PW8895) or ubiquitin (1:1000, Santa-Cruz, SC-8017). An antibody to α-tubulin was used (1:1000, Santa Cruz, sc-8035) to check and normalize for any loading differences. After 3 washing steps with TBS-T, the membranes were incubated for 1 h with HRP-labelled donkey-anti-rabbit (1:6000, Amersham, UK) or goat-anti-mouse (1:6000, Dako, Glostrup, Denmark) as secondary antibody. Detection of antibody binding was followed by chemoluminescence using Supersignal (Pierce Biotechnology, Rockford, USA) according to the manufacturers’ instructions. […] The signal intensity was determined densitometrically using Quantity One software (Bio-Rad) and was expressed relative to the intensity of the α-tubulin signal.

SK-OV-3 = assay: NCI60 tumor cell line screen; assay type: cell-based; conditions: Homo sapiens, Ovarian, 48 h drug exposure, read-out: LOG10 GI50 (converted)
K-562 = assay: NCI60 tumor cell line screen; assay type: cell-based; conditions: Homo sapiens, K562, Leukemia, 48 h drug exposure, read-out: LOG10 GI50 (converted)
CCRF-CEM = assay: NCI60 tumor cell line screen; assay type: cell-based; conditions: Homo sapiens, Leukemia, 48 h drug exposure, read-out: LOG10 GI50
SNB-75 = assay: NCI60 tumor cell line screen; assay type: cell-based; conditions: Homo sapiens, CNS, 48 h drug exposure, read-out: LOG10 GI50 (converted)
DU-145 = assay: NCI60 tumor cell line screen; assay type: cell-based; conditions: Homo sapiens, Prostate, 48 h drug exposure, read-out: LOG10 GI50 (converted)
NCI-H226 = assay: NCI60 tumor cell line screen; assay type: cell-based; conditions: Homo sapiens, NSC Lung, 48 h drug exposure, read-out: LOG10 GI50 (converted)
SNB-19 = assay: NCI60 tumor cell line screen; assay type: cell-based; conditions: Homo sapiens, CNS, 48 h drug exposure, read-out: LOG10 GI50 (converted)
THP1/BTZ50 = conditions: relative to THP1/WT; ref Oerlemans et al. [46]; cited from earlier work
proteasome β-subunits = assay: Proteasome affinity labelling and recovery in H929 cells; assay type: cell-based, human; conditions: 5 μM MG132 (1 h) or 20 nM bortezomib (1 h)
THP1/BTZ200 = conditions: relative to THP1/WT; ref Oerlemans et al. [46]; cited from earlier work
HS 578T = assay: NCI60 tumor cell line screen; assay type: cell-based; conditions: Homo sapiens, Breast, 48 h drug exposure, read-out: LOG10 GI50 (converted)
THP1/BTZ100 = conditions: relative to THP1/WT; ref Oerlemans et al. [46]; cited from earlier work
THP1/WT [4] = tested on: THP1/WT; parameters: method as in Oerlemans et al. [46]; conditions: ref Oerlemans et al. [46], cited from earlier work
COLO 205 = assay: NCI60 tumor cell line screen; assay type: cell-based; conditions: Homo sapiens, Colon, 48 h drug exposure, read-out: LOG10 GI50 (converted)
THP1 cells = assay: Growth inhibition with or without Ruthenium Red; assay type: cell-based, human; conditions: 72 h, with or without 25 μM Ruthenium Red
Protocol: as §1

[5] = tested on: β5 subunit of the proteasome; parameters: method as in PMID 16286248, PMID 16455650; conditions: ref [15], [21]; read-out: IC50, proteasome inhibition; cited from earlier work
HT29 = assay: NCI60 tumor cell line screen; assay type: cell-based; conditions: Homo sapiens, HT-29, Colon, 48 h drug exposure, read-out: LOG10 GI50 (converted)
[6] = tested on: NCI60 tumor cell line panel; assay: NCI60 panel COMPARE analysis; assay type: cell-based, human; conditions: mean log10GI50, 2 days of drug exposure
SK-MEL-5 = assay: NCI60 tumor cell line screen; assay type: cell-based; conditions: Homo sapiens, Melanoma, 48 h drug exposure, read-out: LOG10 GI50 (converted)
THP1/WT cells [7] = assay: Apoptosis assay (Annexin-V/7-AAD flow cytometry); assay type: cell-based, human; conditions: 24 h exposure
Protocol: (§2) Induction of apoptosis was analyzed by flow cytometry using APOPTEST™-FITC A700 (VPS Diagnostics, Hoeven, the Netherlands) according to the instructions of the manufacturer. In short, induction of apoptosis was determined after 24 h’ drug exposure. One million cells were harvested and washed 3 times with ice-cold PBS. The cell pellet was incubated for 30 min with 7-Amino-actinomycin D (7-AAD) on ice followed by incubation with Annexin-V according to the instructions of the manufacturer. Annexin-V (early apoptosis) and 7-AAD (late apoptosis) staining was measured by flow cytometry (Beckton & Dickinson, FACScalibur) and analysed using FCSexpress V3 software (Denovo software, Thornhill, Canada).

THP1/BTZ200 cells = assay: Apoptosis assay (Annexin-V/7-AAD flow cytometry); assay type: cell-based, human; conditions: 24 h, 4A6 over 0–25 μM
Protocol: as §2

proteasome = assay: Proteasome inhibitory effect of cleavage product (data not shown)
[8] = Cell growth inhibitory potential of cleavage product (data not shown); assay type: cell-based

Question: With “4A6-dimer: dimer form of 4A6, contains the same amino acid sequence as 4A6 (THTXEG; The dimer linkage, and any protecti)” as the compound, how does the IC50 [1] read?
Answer: The IC50 was 490 ± 120 nM.

Question: Which IC50 (THP1/WT [2]) does the source give for `CC(=O)N[C@H](C(=O)N[C@@H](CCC(=O)OC(C)(C)C)C(=O)N[C@@H](CCC(=O)OCc1ccccc1)C(=O)N[C@@H](CC(=O)OC(C)(C)C)C(=O)N[C@@H](CCC(=O)OC(C)(C)C)C(=O)NCC(=O)NCc1ccccc1)[C@@H](C)OCc1ccccc1` [4E11, Ac-Thr(OBzl)-Glu(OtBu)-Glu(OBzl)-Asp(OtBu)-Glu(OtBu)-Gly-Bza] (Ac-T(Bn)E(OtBu)E(OBn)D(OtBu)E(OtBu)G-NHBn) here?
Answer: The IC50 was 3900 ± 800 nM.

Question: For `CC(C)C[C@H](NC(=O)[C@H](Cc1ccccc1)NC(=O)c1cnccn1)B(O)O` [Bortezomib, Pyrazylcarbonyl-Phe-Leu-boronate], which GI50 (A549/ATCC) is on record?
Answer: The GI50 was 2.44 nM.

Question: What about the “accumulation of ubiquitinated proteins” value (THP1/WT cells [3]) of the same compound?
Answer: Its value is “marked accumulation of ubiquitinated proteins”.

Question: What about the GI50 (SK-OV-3) of the same compound?
Answer: Its GI50 is 32.9 nM.

Question: What about the GI50 (K-562) of the same compound?
Answer: Its GI50 is 0.422 nM.

Question: And the GI50 (CCRF-CEM)?
Answer: The GI50 was 0.1 nM.

Question: And the GI50 (SNB-75)?
Answer: Its GI50 is 1.95 nM.

Question: And the GI50 (DU-145)?
Answer: The GI50 was 0.891 nM.

Question: And the GI50 (NCI-H226)?
Answer: The GI50 was 0.105 nM.

Question: What about the GI50 (SNB-19) of the same compound?
Answer: Its GI50 is 0.724 nM.

Question: And the “[Resistance Factor] THP1/BTZ50” value (THP1/BTZ50)?
Answer: Its value is 45.

Question: And the “inhibition of β-subunit activity probing” value (proteasome β-subunits)?
Answer: Its value is “predominantly inhibited β5-subunit probing”.

Question: What about the “[Resistance Factor] THP1/BTZ200” value (THP1/BTZ200) of the same compound?
Answer: The value was 129.

Question: What about the GI50 (HS 578T) of the same compound?
Answer: The GI50 was 0.422 nM.

Question: And the “[Resistance Factor] THP1/BTZ100” value (THP1/BTZ100)?
Answer: Its value is 79.

Question: And the IC50 (THP1/WT [4]; growth inhibition)?
Answer: The IC50 was 0.0033 ± 0.0006 µM.

Question: And the “[Resistance Factor] THP1/WT” value (THP1/WT [4]; reference value in square brackets)?
Answer: Its value is 1.

Question: And the GI50 (COLO 205)?
Answer: The GI50 was 0.363 nM.

Question: And the “effect of Ruthenium Red on growth inhibitory activity (protection)” value (THP1 cells)?
Answer: Its value is “marked abrogation”.

Question: What about the IC50 [5] of the same compound?
Answer: Its IC50 is 3 to 5 nM.

Question: What about the GI50 (HT29) of the same compound?
Answer: Its GI50 is 0.389 nM.

Question: And the “orders of magnitude more potent than 4A6” value [6]?
Answer: Its value is 2–3 orders of magnitude.

Question: What about the GI50 (SK-MEL-5) of the same compound?
Answer: The GI50 was 0.11 nM.

Question: For `CC(C)C[C@@H](C=O)NC(=O)[C@H](CC(C)C)NC(=O)[C@H](CC(C)C)NC(=O)OCc1ccccc1` [MG132, Z-Leu-Leu-Leucinal] (Cbz-Leu-Leu-Leu-aldehyde), which “inhibition of β-subunit activity probing” value (proteasome β-subunits) is on record?
Answer: The value was “blocked activity probing of all β-subunits”.

Question: Which induction of apoptosis (THP1/WT cells [7]) does the source give for `COc1cc([C@@H]2c3cc4c(cc3[C@@H](O[C@@H]3O[C@@H]5CO[C@@H](C)O[C@H]5[C@H](O)[C@H]3O)[C@H]3COC(=O)[C@H]23)OCO4)cc(OC)c1O` [etoposide, reference compound] here?
Answer: Its induction of apoptosis is “equally effective in inducing apoptosis”.

Question: What about the induction of apoptosis (THP1/BTZ200 cells) of the same compound?
Answer: Its induction of apoptosis is “equally effective in inducing apoptosis”.

Question: Which results are given for Ac-Thr(tBu)-His(Bzl)-Thr(Bzl)-Nle-OH?
Answer: proteasome inhibitory effect (proteasome): did not show any proteasome inhibitory effect; cell growth inhibitory potential [8]: did not show any proteasome inhibitory effect or cell growth inhibitory potential
